IC50 data for 7 compounds are collected here from US20020072530A1, “Indole and benzimidazole inhibitors of factor Xa” (priority 2000, published 2002).

Read-outs that look alike come from different tables or passages of the source.

What all share (assay type): biochemical
Test [1] deals with factor Xa (Homo sapiens, UniProt P00742). The test is described as follows: Factor Xa amidolytic assay (chromogenic substrate S-2765). How it is done: (§1) The compounds of the present invention are dissolved in buffer to give solutions containing concentrations such that assay concentrations range from about 0 to about 100 μM. In the assays for thrombin, prothrombinase and factor Xa, a synthetic chromogenic substrate is added to a solution containing test compound and the enzyme of interest and the residual catalytic activity of that enzyme is determined spectrophotometrically. The IC50 of a compound is determined from the substrate turnover. The IC50 is the concentration of test compound giving about 50% inhibition of the substrate turnover.
(§2) The factor Xa and thrombin assays were performed at room temperature, in 0.02 M Tris-HCl buffer, pH 7.5, containing 0.15 M NaCl. The rates of hydrolysis of the para-nitroanilide substrate S-2765 (Chromogenix) for factor Xa, and the substrate Chromozym TH (Boehringer Mannheim) for thrombin following preincubation of the enzyme with inhibitor for 5 minutes at room temperature, and were determined using the Softmax 96-well plate reader (Molecular Devices), monitored at 405 nm to measure the time dependent appearance of p-nitroaniline.

Test [2] addresses prothrombinase complex (Homo sapiens, UniProt P00742). Put plainly: Prothrombinase inhibition assay in a plasma free system. Conditions: table of Examples 6-18; unit inferred; read-out: IIASE (IC50). The method, then:
as §1
The prothrombinase inhibition assay was performed in a plasma free system with modifications to the method described by Sinha, U. et al., Thromb. Res., 75, 427-436 (1994). Specifically, the activity of the prothrombinase complex was determined by measuring the time course of thrombin generation using the p-nitroanilide substrate Chromozym TH. The assay consists of preincubation (5 minutes) of selected compounds to be tested as inhibitors with the complex formed from factor Xa (0.5 nM), factor Va (2 nM), phosphatidyl serine:phosphatidyl choline (25:75, 20 μM) in 20 mM Tris-HCl buffer, pH 7.5, containing 0.15 M NaCl, 5 mM CaCl2 and 0.1% bovine serum albumin. Aliquots from the complex-inhibitor mixture were added to prothrombin (1 nM) and Chromozym TH (0.1 mM). The rate of substrate cleavage was monitored at 405 nm for two minutes. Eight different concentrations of inhibitor were assayed in duplicate. A standard curve of thrombin generation by an equivalent amount of untreated complex was used for determination of percent inhibition.

Test [3] has as its target thrombin (Homo sapiens, UniProt P00734). Put plainly: Thrombin amidolytic assay (chromogenic substrate Chromozym TH). The method, then:
as §1, §2

Setting [4] is: table of Examples 6-18, unit inferred, read-out: XA (IC50).
Where [5] appears, read: table of Examples 6-18, unit inferred, read-out: IIA (IC50).
Setting [6] is: Table 5, read-out: Inhibitory Activity (IC50) Factor Xa.
[7] abbreviates: Table 5, read-out: Inhibitory Activity (IC50) Thrombin.

factor Xa, sequence (P00742 235-488 limits assumed): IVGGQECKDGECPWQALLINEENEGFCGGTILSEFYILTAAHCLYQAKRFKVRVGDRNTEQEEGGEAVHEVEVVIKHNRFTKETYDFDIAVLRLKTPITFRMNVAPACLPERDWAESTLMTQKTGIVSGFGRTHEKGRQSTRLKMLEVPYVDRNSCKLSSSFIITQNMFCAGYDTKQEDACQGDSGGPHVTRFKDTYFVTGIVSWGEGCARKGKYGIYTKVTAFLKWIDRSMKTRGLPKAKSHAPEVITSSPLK
factor Xa, sequence (P00742 41-179 limits assumed): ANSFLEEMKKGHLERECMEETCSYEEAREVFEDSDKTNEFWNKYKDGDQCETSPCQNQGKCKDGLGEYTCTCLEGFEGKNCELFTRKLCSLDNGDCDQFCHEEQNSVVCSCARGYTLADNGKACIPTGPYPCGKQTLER
prothrombinase complex, sequence (P00742 235-488 limits assumed): as the sequence (P00742 235-488 limits assumed) above
prothrombinase complex, sequence (P00742 41-179 limits assumed): as the sequence (P00742 41-179 limits assumed) above
prothrombinase complex, sequence (P12259 29-737 partner limits assumed): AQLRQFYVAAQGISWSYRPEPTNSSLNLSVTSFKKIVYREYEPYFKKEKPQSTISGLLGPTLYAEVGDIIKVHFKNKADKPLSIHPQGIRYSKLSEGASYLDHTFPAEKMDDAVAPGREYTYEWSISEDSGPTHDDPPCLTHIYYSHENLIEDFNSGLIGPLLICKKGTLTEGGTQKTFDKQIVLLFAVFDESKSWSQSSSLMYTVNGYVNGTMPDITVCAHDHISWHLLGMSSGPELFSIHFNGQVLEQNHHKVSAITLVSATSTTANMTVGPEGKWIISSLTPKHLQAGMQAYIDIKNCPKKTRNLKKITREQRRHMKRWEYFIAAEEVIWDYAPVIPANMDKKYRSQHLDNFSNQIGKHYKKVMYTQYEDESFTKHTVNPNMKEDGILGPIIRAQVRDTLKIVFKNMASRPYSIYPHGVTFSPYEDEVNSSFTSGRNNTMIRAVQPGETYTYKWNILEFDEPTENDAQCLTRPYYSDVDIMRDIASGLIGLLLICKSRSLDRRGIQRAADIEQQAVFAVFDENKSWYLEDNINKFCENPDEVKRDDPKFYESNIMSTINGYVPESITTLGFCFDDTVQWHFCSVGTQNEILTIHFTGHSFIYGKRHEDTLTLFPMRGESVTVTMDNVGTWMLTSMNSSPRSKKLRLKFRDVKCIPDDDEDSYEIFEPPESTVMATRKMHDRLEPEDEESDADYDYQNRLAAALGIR
prothrombinase complex, sequence (P12259 1574-2224 partner limits assumed): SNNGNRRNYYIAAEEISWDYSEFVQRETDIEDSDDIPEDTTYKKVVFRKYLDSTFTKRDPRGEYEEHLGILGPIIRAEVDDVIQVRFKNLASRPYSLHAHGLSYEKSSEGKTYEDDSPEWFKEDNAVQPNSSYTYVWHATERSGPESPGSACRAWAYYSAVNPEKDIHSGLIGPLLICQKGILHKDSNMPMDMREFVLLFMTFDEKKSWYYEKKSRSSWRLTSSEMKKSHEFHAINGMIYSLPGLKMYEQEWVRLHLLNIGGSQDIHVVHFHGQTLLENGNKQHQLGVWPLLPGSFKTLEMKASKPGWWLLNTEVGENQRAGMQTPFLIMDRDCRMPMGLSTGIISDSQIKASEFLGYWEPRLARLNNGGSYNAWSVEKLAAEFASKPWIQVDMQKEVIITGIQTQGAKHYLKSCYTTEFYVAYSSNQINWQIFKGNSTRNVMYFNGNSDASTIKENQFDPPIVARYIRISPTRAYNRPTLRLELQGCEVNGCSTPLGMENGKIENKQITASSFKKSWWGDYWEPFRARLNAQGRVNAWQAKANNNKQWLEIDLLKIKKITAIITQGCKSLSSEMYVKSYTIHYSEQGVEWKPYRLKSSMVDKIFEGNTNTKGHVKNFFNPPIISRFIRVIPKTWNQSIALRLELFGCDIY

As for `CCn1c(Cn2c(C(C)C)nc3ccc(OC4CCN(C(C)=N)CC4)cc32)cc2ccc(C(=N)N)cc21` [Example 6], the IC50 in test [1] (setting [4]) was determined as 148 nM; in test [2], 139 nM; in test [3] (setting [5]), 16.4 nM.
For `CC(=N)N1CCC(Oc2ccc3c(c2)nc(C(C)C)n3Cc2cccc(-c3cccc(C(=N)N)c3)c2)CC1` [Example 10], the half-inhibitory concentration (IC50) turned out to be 5.73 nM in test [1] (setting [6]); 5.73 nM in test [1] (setting [4]); 2.56 nM in test [2]; 26300 nM in test [3] (setting [7]); 26300 nM in test [3] (setting [5]).
With `CCn1c(Cn2c(C(C)C)nc3cc(OC4CCN(C(C)=N)CC4)ccc32)cc2ccc(C(=N)N)cc21` [Example 7], the IC50 was 1.2 nM in test [1] (setting [6]); 1.2 nM in test [1] (setting [4]); 9.67 nM in test [2]; 805 nM in test [3] (setting [7]); 805 nM in test [3] (setting [5]).
`CC(C)c1nc2cc(OC3CCN(C)CC3)ccc2n1Cc1cccc(-c2cccc(C(=N)N)c2)c1` [Example 8]: the IC50 in test [1] (setting [4]) turned out to be 32.2 nM; in test [2] it was 375 nM; in test [3] (setting [5]) it was 29000 nM.
Consider `CC(=N)N1CCC(Oc2ccc3nc(C(C)C)n(Cc4ccc5ccc(C(=N)N)cc5c4)c3c2)CC1` [Example 11], for which the IC50 in test [1] (setting [4]) was determined as 10.4 nM; in test [2], 17 nM.
In the case of `CCOC(=O)c1nc2cc(OC3CCN(C(C)=N)CC3)ccc2n1Cc1cc2ccc(C(=N)N)cc2n1CC` [Example 18], the IC50 in test [1] (setting [6]) came out at 18 nM; in test [1] (setting [4]) it was 18 nM; in test [2] it was 167 nM; in test [3] (setting [7]), 1300 nM; in test [3] (setting [5]), 1360 nM.
`CC(=N)N1CCC(Oc2ccc3nc(C(C)C)n(Cc4cccc(-c5cccc(C(=N)N)c5)c4)c3c2)CC1` [Example 9]: the figures for the IC50 in test [1] (setting [4]), in test [2] and in test [3] (setting [5]) were 658 nM, 9040 nM and 9610 nM, respectively.
